Experimental findings from PubChem BioAssay AID328 (DTP/NCI, 2004) are described below.

Structures are written as SMILES. Where “and” joins values, the source holds several entries; their conditions need not be identical. Equal entries are not always repeated. Toxic doses and inconclusive results are not listed.

The experiment relates to BDF1 mice, P388 leukemia ip, median survival T/C. Nature of the experiment: NCI In Vivo Anticancer Drug Screen. Data for tumor model P388 Leukemia (intraperitoneal) in B6D2F1 (BDF1) mice. Conditions: endpoint: median survival time, higher = longer survival. In short, it runs like this:
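Transplantable tumour in mice; compound vs vehicle dosing; survival scored; ratio of treated to control reported.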

[1] abbreviates: dose: 50.0 mg/kg/injection, schedule: Q01DX009 (ip), vehicle: saline with Tween-80.
The mark [2] stands for this setting: dose: 100.0 mg/kg/injection, schedule: Q01DX009 (ip), vehicle: saline with Tween-80.
The mark [3] stands for this setting: dose: 200.0 mg/kg/injection, schedule: Q01DX009 (ip), vehicle: saline with Tween-80.
Setting [4] is: dose: 100.0 mg/kg/injection, schedule: Q01DX009 (ip), vehicle: saline.
[5] abbreviates: dose: 200.0 mg/kg/injection, schedule: Q01DX009 (ip), vehicle: saline.
The mark [6] stands for this setting: dose: 200.0 mg/kg/injection, schedule: Q04DX003 (ip), vehicle: saline with Tween-80.
Setting [7] is: dose: 400.0 mg/kg/injection, schedule: Q04DX003 (ip), vehicle: saline with Tween-80.

As for `CC1C=CCC(C)(C)C1` (configuration not stated), the T/C is, setting by setting: (dose: 25.0 mg/kg/injection, schedule: Q01DX009 (ip), vehicle: saline with Tween-80) 104 % of control; under setting [1], 100 % of control; under setting [2], 100 % of control and 113 % of control.

For `Cc1ccc(-c2nc3ccccc3c(=O)n2/N=C/c2ccc(Cl)cc2Cl)cc1`, the T/C was 100 % of control under setting [1], 89 % of control under setting [2] and 90 % of control under setting [3].

As to `COC(=O)CC12CC3(C)CC(C)(C1)CC(CC(=O)OC)(C3)C2`, the T/C under setting [1] is 102 % of control, the T/C under setting [2] is 102 % of control and the T/C under setting [3] is 117 % of control.

In the case of `O=C(O)CCc1ccccc1`, the T/C was 95 % of control (dose: 75.0 mg/kg/injection, schedule: Q01DX009 (ip), vehicle: saline with Tween-80); 104 % of control (dose: 100.0 mg/kg/injection, schedule: Q01DX001 (ip), vehicle: Klucel (hydroxypropylcellulose) (HPC)); 109 % of control (dose: 150.0 mg/kg/injection, schedule: Q01DX009 (ip), vehicle: saline with Tween-80); 100 % of control (dose: 200.0 mg/kg/injection, schedule: Q01DX001 (ip), vehicle: Klucel (hydroxypropylcellulose) (HPC)); 100 % of control (dose: 300.0 mg/kg/injection, schedule: Q01DX009 (ip), vehicle: saline with Tween-80); 100 % of control (dose: 400.0 mg/kg/injection, schedule: Q01DX001 (ip), vehicle: Klucel (hydroxypropylcellulose) (HPC)).

For `C=CCc1cn(C2CC(O)C(CO)O2)c(=O)[nH]c1=O` (configuration not stated), the T/C is 116 % of control under setting [4]; 108 % of control under setting [5]; 116 % of control (dose: 400.0 mg/kg/injection, schedule: Q01DX009 (ip), vehicle: saline).

Consider `[N-]=[N+]=CC(=O)OCC(N)C(=O)O` (configuration not stated), for which the T/C under setting [4] is 110 % of control; the T/C (dose: 100.0 mg/kg/injection, schedule: Q04DX003 (ip), vehicle: saline) is 109 % of control; the T/C under setting [5] was 110 % of control; the T/C (dose: 200.0 mg/kg/injection, schedule: Q04DX003 (ip), vehicle: saline) was 109 % of control; the T/C (dose: 400.0 mg/kg/injection, schedule: Q04DX003 (ip), vehicle: saline) was 118 % of control.

On to `CN(C)C=Nc1ccc2c3c(cccc13)CC2`, for which the T/C by setting is: (dose: 6.25 mg/kg/injection, schedule: Q01DX009 (ip), vehicle: Klucel (hydroxypropylcellulose) (HPC)) 103 % of control; (dose: 12.5 mg/kg/injection, schedule: Q01DX009 (ip), vehicle: Klucel (hydroxypropylcellulose) (HPC)) 99 % of control; (dose: 16.6 mg/kg/injection, schedule: Q01DX009 (ip), vehicle: Klucel (hydroxypropylcellulose) (HPC)) 115 % of control; (dose: 25.0 mg/kg/injection, schedule: Q01DX009 (ip), vehicle: Klucel (hydroxypropylcellulose) (HPC)) 114 % of control.

Take `O=C(Cn1ccc(O)cc1=O)c1ccco1`: the T/C under setting [2] is 100 % of control; the T/C (dose: 100.0 mg/kg/injection, schedule: Q04DX003 (ip), vehicle: saline with Tween-80) is 100 % of control; the T/C under setting [3] was 95 % of control; the T/C under setting [6] was 109 % of control; the T/C (dose: 400.0 mg/kg/injection, schedule: Q01DX009 (ip), vehicle: saline with Tween-80) is 104 % of control; the T/C under setting [7] was 104 % of control.

On to `Nc1ncnc2c1ncn2C1OC(CO)CC1O` (configuration not stated), for which the T/C by setting is: (dose: 4.68 mg/kg/injection, schedule: Q01DX009 (ip), vehicle: Klucel (hydroxypropylcellulose) (HPC)) 108 % of control; (dose: 9.37 mg/kg/injection, schedule: Q01DX009 (ip), vehicle: Klucel (hydroxypropylcellulose) (HPC)) 106 % of control; (dose: 18.75 mg/kg/injection, schedule: Q01DX009 (ip), vehicle: Klucel (hydroxypropylcellulose) (HPC)) 106 % of control; (dose: 37.5 mg/kg/injection, schedule: Q01DX009 (ip), vehicle: Klucel (hydroxypropylcellulose) (HPC)) 111 % of control; (dose: 75.0 mg/kg/injection, schedule: Q01DX009 (ip), vehicle: Klucel (hydroxypropylcellulose) (HPC)) 106 % of control; (dose: 150.0 mg/kg/injection, schedule: Q01DX009 (ip), vehicle: Klucel (hydroxypropylcellulose) (HPC)) 106 % of control.

Consider `NC1=C(c2ccccc2)C(=O)c2ccccc21`, for which the T/C was 104 % of control (dose: 100.0 mg/kg/injection, schedule: Q04DX003 (ip), vehicle: Klucel (hydroxypropylcellulose) (HPC)); 109 % of control (dose: 200.0 mg/kg/injection, schedule: Q04DX003 (ip), vehicle: Klucel (hydroxypropylcellulose) (HPC)); 109 % of control (dose: 400.0 mg/kg/injection, schedule: Q04DX003 (ip), vehicle: Klucel (hydroxypropylcellulose) (HPC)).

Turning to `CC(C)=CCOc1ccc2ccc(=O)oc2c1`, the T/C is 100 % of control (dose: 4.0 mg/kg/injection, schedule: Q01DX009 (ip), vehicle: Klucel (hydroxypropylcellulose) (HPC)); 98 % of control (dose: 8.0 mg/kg/injection, schedule: Q01DX009 (ip), vehicle: Klucel (hydroxypropylcellulose) (HPC)); 108 % of control (dose: 16.0 mg/kg/injection, schedule: Q01DX009 (ip), vehicle: Klucel (hydroxypropylcellulose) (HPC)); 90 % of control (dose: 32.0 mg/kg/injection, schedule: Q01DX009 (ip), vehicle: Klucel (hydroxypropylcellulose) (HPC)).

Regarding `O=[N+]([O-])c1ccc(S(=O)(=O)c2ccc([N+](=O)[O-])cc2)cc1`, the T/C runs as follows: (dose: 50.0 mg/kg/injection, schedule: Q04DX003 (ip), vehicle: saline with Tween-80) 101 % of control; under setting [6], 110 % of control; under setting [7], 93 % of control.

Consider `N#Cc1ccccc1CC(O)(c1ccccc1)c1ccccn1` (configuration not stated), for which the T/C under setting [1] was 100 % of control, the T/C under setting [2] is 103 % of control and the T/C under setting [3] is 115 % of control.

In the case of `COC(=O)CCC(C)C1CCC2C3CCC4CC(SC(=N)N)CCC4(C)C3CCC12C` (configuration not stated), the T/C (dose: 1.56 mg/kg/injection, schedule: Q01DX009 (ip), vehicle: suspension in saline) was 93 % of control; the T/C (dose: 3.13 mg/kg/injection, schedule: Q01DX009 (ip), vehicle: suspension in saline) was 100 % of control; the T/C (dose: 6.25 mg/kg/injection, schedule: Q01DX009 (ip), vehicle: suspension in saline) was 109 % of control; the T/C under setting [1] is 105 % of control; the T/C under setting [2] is 103 % of control.

As for `O=C(NO)c1ccncc1`, the T/C is, setting by setting: under setting [4], 120 % of control; (dose: 100.0 mg/kg/injection, schedule: Q01DX010 (ip), vehicle: water) 90 % of control; (dose: 132.0 mg/kg/injection, schedule: Q01DX009 (ip), vehicle: saline) 118 % of control; (dose: 200.0 mg/kg/injection, schedule: Q01DX006 (ip), vehicle: water) 90 % of control; under setting [5], 118 % of control and 120 % of control; (dose: 200.0 mg/kg/injection, schedule: Q01DX010 (ip), vehicle: water) 118 % of control. Further, the T/C was 100 % of control (dose: 200.0 mg/kg/injection, schedule: Q#A X020 (ip), vehicle: water); 113 % of control (dose: 222.0 mg/kg/injection, schedule: Q01DX010 (ip), vehicle: water); 113 % of control (dose: 222.0 mg/kg/injection, schedule: Q02DX005 (ip), vehicle: water); 118 % of control (dose: 300.0 mg/kg/injection, schedule: Q01DX009 (ip), vehicle: saline); 118 % of control (dose: 300.0 mg/kg/injection, schedule: Q#A X020 (ip), vehicle: water); 109 % of control (dose: 335.0 mg/kg/injection, schedule: Q02DX005 (ip), vehicle: water). The T/C was 90 % of control (dose: 400.0 mg/kg/injection, schedule: Q01DX006 (ip), vehicle: water); 150 % of control (dose: 400.0 mg/kg/injection, schedule: Q01DX010 (ip), vehicle: water); 109 % of control (dose: 500.0 mg/kg/injection, schedule: Q01DX001 (ip), vehicle: water); 100 % of control (dose: 600.0 mg/kg/injection, schedule: Q01DX006 (ip), vehicle: water); 154 % of control (dose: 600.0 mg/kg/injection, schedule: Q01DX010 (ip), vehicle: water); 154 % of control (dose: 750.0 mg/kg/injection, schedule: Q01DX010 (ip), vehicle: water). The T/C reads like this: (dose: 750.0 mg/kg/injection, schedule: Q02DX005 (ip), vehicle: water) 163 % of control; (dose: 800.0 mg/kg/injection, schedule: Q01DX006 (ip), vehicle: water) 90 % of control; (dose: 1000.0 mg/kg/injection, schedule: Q01DX001 (ip), vehicle: water) 113 % of control; (dose: 1500.0 mg/kg/injection, schedule: Q01DX001 (ip), vehicle: water) 100 % of control.

On to `CCCCOCN(COCCCC)c1cccc([N+](=O)[O-])c1`, for which the T/C runs as follows: under setting [1], 102 % of control; under setting [2], 100 % of control; under setting [3], 111 % of control.
